Test results published in patent US8409618B2, “Odor-reducing quinone compounds” (Kimberly-Clark Worldwide, Inc., priority 2002, dated 2013).

Columns and labels:
[1] = Urine odor and secondary odor panel ranking, dye powders in urine, 8 millimolar (Example 7); parameters: species or system human; conditions: for Secondary Odor Ranking: scale 1 to 5, 5 extremely unpleasant, individual panelists' scores; for Average Urine Odor Ranking (with statistical corrections), Avg. Score: ignoring statistical anomalies
Procedure: (§1) Qualitative odor reduction was also assessed against common odors, such as garlic and urine. Specifically, panelists assessed odorant-containing jars by carefully unscrewing, and then raising the lid of each jar in a controlled manner, such that the odor was not diluted by the ambient air. The jars were wrapped and coded to ensure that the sample identity was unknown.
The effectiveness of various dyes in reducing urine odor was compared. […] Human female urine was initially collected and pooled by a nurse on staff at Kimberly-Clark Corporation. The pooled urine was added to mason jars in 50-milliliter aliquots using an automated pipette aid. Powders of the aforementioned dyes (commercially available from Sigma-Aldrich Chemical Co., Inc. of St. Louis, Mo. and Noveon Hilton Davis, Inc. of Cincinnati, Ohio) were weighed and placed into the mason jars containing 50 milliliters of urine so that the final concentration of the dye powder was 8 millimolar (equivalent to 0.5 wt. %). The mason jars were placed in an incubator overnight at 37° C.
To aid in the assessment of the dyes, the mason jars were divided into two groups for a morning assessment, and the best of both groups were compared in an afternoon assessment (after a total of 24 hours). In addition to ranking the jars from least to most malodorous (on a scale from 1 to 7, with 7 being the most malodors), panelists were also asked to judge whether there were secondary (non-urine) odors present and, if so, the extent that the secondary odors were unpleasant (on a scale from 1 to 5, with 5 being extremely unpleasant).
In this assessment, panelists were given instructions to rank the least malodorous jar as “1” and the most malodorous jar as “10,” remaining free to rank the other jars between 2-9.

[2] = Urine odor panel ranking, dye-coated Poise pads without SN-AK (Example 8); parameters: species or system human; conditions: for Average Urine Odor Ranking, Avg. Score / overall urine odor control performance (panel): final pooled assessment; for Secondary Odor Ranking: scale of 1-5; for urine odor reduction (panel), assessment within set: overnight 37° C.; for overall urine odor control performance (panel): top-sheet coating
Procedure: as §1
Specifically, Acid Green 25, Acid Green 41, Acid Blue 129, and D&C Green No. 5 were tested. Powders of the aforementioned dyes (commercially available from Sigma-Aldrich Chemical Co., Inc. of St. Louis, Mo. and Noveon Hilton Davis, Inc. of Cincinnati, Ohio) were dissolved in water so that the concentration of the dye was 8 millimolar (equivalent to 0.5 wt. %). Samples of tissue wrap were created by cutting 9″×6″ sheets from a roll of tissue (1 ply white cellulose wrap sheet having a basis weight of 16.6 grams per square meter) were weighed, oven-dried overnight at 90° C., and weighed again the next day to calculate the amount of residual water in each wrap. The wraps were then dipped into a respective dye solution and hung to dry overnight, after which they were weighed again. The treated wraps were then rinsed in deionized water to remove any unbound dye and hung again to dry overnight. After weighing the treated wraps, they were once again oven-dried overnight at 90° C. and weighed to determine the dry add-on percentages ([…]). The add-on percentage for each sample was approximately 1.6 wt. %.
Two different sets of Poise® pads (commercially available from Kimberly-Clark Corp.) were tested. The first set of dye-coated tissue wraps (without SN-AK) was inserted around the pledgette area of the Poise® pads. The Poise® pads were cut open and the tissue wrap surrounding the pledgette carefully removed and replaced with dye-coated tissue wrap. The second set of dye-coated tissue wraps (without SN-AK) used dye coatings on the top of the pad (rather than inside). These pads were constructed by spreading the solution over the top of each pad. To prevent the superabsorbent area of the pad from soaking up the solution, the pads were cut open prior to coating and a layer of plastic wrap was placed between the top layer of the pad and the superabsorbent core. A pad that was cut open, but coated only with water on top, was used as a control. All pads were dried at room temperature overnight before placing them in mason jars for testing. For control purposes, a Poise® pad was also tested that was cut open, but retained its original tissue wrap. In addition, Serenity® Night & Day™ incontinence pads, which are commercially available from SCA Incontinence Care of Eddystone, Pa. and said to employ OdaSorb Plus™ to reduce odor, were also used for comparison.
Fresh human female urine was then pooled, and 50-milliliter aliquots were applied to the pads using a pipette. The mason jars were placed in a 37° C. incubator overnight for assessment the next day. […] Panelists were again asked to rank any secondary odors for unpleasantness on a scale of 1-5.

[3] = First Grouping, morning assessment, 8 millimolar, 7 most malodorous
[4] = First Grouping, scale 1 to 7, 7 most malodorous
[5] = After 24 Hours, top performers of both groupings, 1 least, 10 most malodorous
[6] = after 24 hours, top performers of both groupings
[7] = after 24 hours, top performers, 1 least, 10 most malodorous
[8] = 2nd set (top-sheet coating), After 30 Hours
[9] = first set of pads (dye-coated tissue wrap around pledgette)
[10] = second set of pads (dye coating on top of pad)
[11] = 1st set (tissue-wrap coating), After 30 Hours
[12] = Second Grouping, morning assessment, 8 millimolar, higher = more malodorous

## 1,2 naphthaquinone-2-sulfonic acid potassium salt
[1]; [3]
  Urine Odor Ranking (number of panelists): ranking 2: 1 number of panelists
  Urine Odor Ranking (number of panelists): ranking 3: 2 number of panelists
  Urine Odor Ranking (number of panelists): ranking 4: 1 number of panelists
  Urine Odor Ranking (number of panelists): ranking 7: 1 number of panelists
[1]; [4]
  Average Urine Odor Ranking, Avg. Score: 3.8
[1]; first grouping
  secondary (non-urine) odor (panel): an unpleasant secondary smell was found to be present
  urine odor reduction (panel): effectively reduced urine odor

## Cc1ccc(Nc2ccc(Nc3ccc(C)cc3S(=O)(=O)[O-])c3c2C(=O)c2c(O)ccc(O)c2C3=O)c(S(=O)(=O)[O-])c1.[Na+].[Na+] [Acid Green 41]
[1]; [5]
  Urine Odor Ranking (number of panelists): ranking 1: 1 number of panelists
  Urine Odor Ranking (number of panelists): ranking 2: 2 number of panelists
  Urine Odor Ranking (number of panelists): ranking 3: 1 number of panelists
  Urine Odor Ranking (number of panelists): ranking 7: 1 number of panelists
[1]; [3]
  Urine Odor Ranking (number of panelists): ranking 1: 1 number of panelists
  Urine Odor Ranking (number of panelists): ranking 2: 2 number of panelists
  Urine Odor Ranking (number of panelists): ranking 3: 1 number of panelists
  Urine Odor Ranking (number of panelists): ranking 4: 1 number of panelists
[1]; First Grouping
  Secondary Odor Ranking: 1
[1]; [4]
  Average Urine Odor Ranking, Avg. Score: 2.4
[1]; [6]
  urine odor reduction (panel): achieved the best odor reduction
[1]; [7]
  Average Urine Odor Ranking, Avg. Score: 3.0
[1]; after 24 hours, top performers
  Average Urine Odor Ranking (with statistical corrections), Avg. Score: 2.0
[1]; first grouping
  urine odor reduction (panel): functioned effectively to reduce odor
[2]; 1st set (tissue-wrap coating)
  Average Urine Odor Ranking, Avg. Score: 4.50
[2]; [8]
  Urine Odor Ranking (number of panelists): ranking 2: 2 number of panelists
  Urine Odor Ranking (number of panelists): ranking 3: 1 number of panelists
  Urine Odor Ranking (number of panelists): ranking 4: 1 number of panelists
  Secondary Odor Ranking: 1
[2]; 2nd set (top-sheet coating)
  Average Urine Odor Ranking, Avg. Score: 2.75
[2]; [9]
  urine odor reduction (panel), assessment within set: performed best for the first set of pads
[2]; [10]
  urine odor reduction (panel), assessment within set: performed best for the second set of pads
[2]
  overall urine odor control performance (panel): best performer overall, followed by Acid Green 41

## Cc1ccc(Nc2ccc(Nc3ccc(C)cc3S(=O)(=O)[O-])c3c2C(=O)c2ccccc2C3=O)c(S(=O)(=O)[O-])c1.[Na+].[Na+] [Acid Green 25]
[1]; [5]
  Urine Odor Ranking (number of panelists): ranking 1: 3 number of panelists
  Urine Odor Ranking (number of panelists): ranking 2: 1 number of panelists
  Urine Odor Ranking (number of panelists): ranking 10: 1 number of panelists
[1]; [3]
  Urine Odor Ranking (number of panelists): ranking 1: 3 number of panelists
  Urine Odor Ranking (number of panelists): ranking 2: 1 number of panelists
  Urine Odor Ranking (number of panelists): ranking 6: 1 number of panelists
[1]; [4]
  Average Urine Odor Ranking, Avg. Score: 2.2
[1]; Second Grouping
  Average Urine Odor Ranking, Avg. Score: 4.4
[1]; [6]
  urine odor reduction (panel): achieved the best odor reduction
[1]; [7]
  Average Urine Odor Ranking, Avg. Score: 3.0
[1]; after 24 hours, top performers
  Average Urine Odor Ranking (with statistical corrections), Avg. Score: 1.3
[1]; first grouping
  secondary (non-urine) odor (panel): not found to be unpleasant by most panelists
  urine odor reduction (panel): functioned effectively to reduce odor
[2]; [11]
  Urine Odor Ranking (number of panelists): ranking 3: 1 number of panelists
  Urine Odor Ranking (number of panelists): ranking 4: 1 number of panelists
  Urine Odor Ranking (number of panelists): ranking 5: 1 number of panelists
  Urine Odor Ranking (number of panelists): ranking 6: 1 number of panelists
  Secondary Odor Ranking: 4
[2]; 1st set (tissue-wrap coating)
  Average Urine Odor Ranking, Avg. Score: 4.50
[2]; [8]
  Urine Odor Ranking (number of panelists): ranking 1: 3 number of panelists
  Urine Odor Ranking (number of panelists): ranking 7: 1 number of panelists
[2]; 2nd set (top-sheet coating)
  Average Urine Odor Ranking, Avg. Score: 2.50
[2]; [9]
  urine odor reduction (panel), assessment within set: performed best for the first set of pads
[2]; [10]
  urine odor reduction (panel), assessment within set: performed best for the second set of pads
[2]
  overall urine odor control performance (panel): best performer overall

## O=C1C=C(S(=O)(=O)[O-])C(=O)c2ccccc21.[K+] [1,4 Naphthaquinone, 1,4 naphthaquinone-2-sulfonic acid potassium salt]
[1]; Second Grouping
  Average Urine Odor Ranking, Avg. Score: 1.8
  secondary (non-urine) odor (panel): unpleasant secondary odor
[1]; [12]
  Urine Odor Ranking (number of panelists): ranking 1: 2 number of panelists
  Urine Odor Ranking (number of panelists): ranking 2: 2 number of panelists
  Urine Odor Ranking (number of panelists): ranking 3: 1 number of panelists

## CCN(Cc1cccc(S(=O)(=O)[O-])c1)c1ccc(C(=C2C=CC(=[N+](CC)Cc3cccc(S(=O)(=O)[O-])c3)C=C2)c2ccccc2S(=O)(=O)[O-])cc1.[Na+].[Na+] [FD&C Blue No. 1, reference compound]
[1]; [3]
  Urine Odor Ranking (number of panelists): ranking 4: 1 number of panelists
  Urine Odor Ranking (number of panelists): ranking 5: 4 number of panelists
[1]; First Grouping
  Secondary Odor Ranking: 3
[1]; [4]
  Average Urine Odor Ranking, Avg. Score: 4.8

## Nc1cc(S(=O)(=O)[O-])c(O)c2c1C(=O)c1c(O)c(S(=O)(=O)[O-])cc(N)c1C2=O.[Na+].[Na+] [Acid Blue 45]
[1]; Second Grouping
  Average Urine Odor Ranking, Avg. Score: 3.4
[1]; [12]
  Urine Odor Ranking (number of panelists): ranking 2: 1 number of panelists
  Urine Odor Ranking (number of panelists): ranking 3: 2 number of panelists
  Urine Odor Ranking (number of panelists): ranking 4: 1 number of panelists
  Urine Odor Ranking (number of panelists): ranking 5: 1 number of panelists
